Measurements: patent US8143227B2, “Azithromycin for treatment of skin disorders” (priority 2008, dated 2012)

Legend:
[1] = tested on: moderate to severe facial acne vulgaris; test: Additional low dosage regimens, lesion counts; type: in vivo, human
Experimental: Five male subjects and five female subjects with moderate to severe facial acne vulgaris, having a mean age of 19.6 years, were treated either with 25 mg of oral azithromycin daily or with 80 mg of oral azithromycin every other day. Each of the ten subjects had acne nodules. The male subjects received the 25 mg per day regimen and the female subjects received the 80 mg every other day regimen. Treatment was continued for a duration of 6 weeks. The numbers of facial inflammatory lesions: papules, pustules, and nodules, and non-inflammatory lesions: open and closed comedones, were counted at the beginning of treatment and again after 3 weeks of treatment and after 6 weeks of treatment. Additionally, nodules were counted independently at each of these visits. Additionally, during the treatment study, each subject reported the occurrence of any adverse effects. The results of this study for the 25 mg/day regimen are shown in Table 7 and for the 80 mg every other day regiment in Table 8. In these tables, the numbers represent the mean number of lesions in the four subjects of each group. The % decrease from Day 0 was calculated as the mean of the differences for each of the parameters (inflammatory lesions, non-inflammatory lesion and nodules) for each individual subject on Day 21 and Day 42.

[2] = Azithromycin levels in skin (follicular biopsy); type: in vivo, human; settings: for Skin Concentration (median): follicular biopsy
Experimental: Standardized follicular biopsy samples, representative of the pilosebaceous unit of the skin, were obtained from the upper back from each of the subjects of Example 1 on study days 0, 21, 42, and 70. The samples were analyzed to determine the tissue level of azithromycin in each biopsy sample.

[3] = 25 mg/day for 6 weeks, male subjects, Day 0 (beginning of treatment)
[4] = 25 mg/day for 6 weeks, male subjects, Day 21
[5] = 25 mg/day for 6 weeks, male subjects, Day 42
[6] = 80 mg every other day for 6 weeks, female subjects, Day 0 (beginning of treatment)
[7] = 80 mg every other day for 6 weeks, female subjects, Day 21
[8] = 80 mg every other day for 6 weeks, female subjects, Day 42

CC[C@H]1OC(=O)[C@H](C)[C@@H](O[C@H]2C[C@@](C)(OC)[C@@H](O)[C@H](C)O2)[C@H](C)[C@@H](O[C@@H]2O[C@H](C)C[C@H](N(C)C)[C@H]2O)[C@](C)(O)C[C@@H](C)CN(C)[C@H](C)[C@@H](O)[C@]1(C)O [Azithromycin, 9-deoxo-9a-aza-9a-methyl-9a-homoerythromycin A]
effectiveness in treating skin disorders such as acne in adults ([1]; 25 mg per day, daily): effective | Inflammatory lesions (mean number) [1, 3]: 37.4 | Nodules (mean number) [1, 3]: 3.0 | Non-inflammatory lesions (mean number) [1, 3]: 12.6 | Inflammatory lesions % Decrease from Day 0 [1, 4]: 38.0% | Inflammatory lesions (mean number) [1, 4]: 22.8 | Nodules % Decrease from Day 0 [1, 4]: 45.0% | Nodules (mean number) [1, 4]: 1.6 | Non-inflammatory lesions % Decrease from Day 0 [1, 4]: 18.8% | Non-inflammatory lesions (mean number) [1, 4]: 10.2 | Inflammatory lesions % Decrease from Day 0 [1, 5]: 41.0% | Inflammatory lesions (mean number) [1, 5]: 22.0 | Nodules % Decrease from Day 0 [1, 5]: 58.3% | Nodules (mean number) [1, 5]: 1.2 | Non-inflammatory lesions % Decrease from Day 0 [1, 5]: 34.3% | Non-inflammatory lesions (mean number) [1, 5]: 8.4 | effectiveness in treating skin disorders such as acne ([1]; 80 mg every other day): effective | Inflammatory lesions (mean number) [1, 6]: 24.4 | Nodules (mean number) [1, 6]: 3.8 | Non-inflammatory lesions (mean number) [1, 6]: 48.6 | Inflammatory lesions % Decrease from Day 0 [1, 7]: 34.0% | Inflammatory lesions (mean number) [1, 7]: 16.0 | Nodules % Decrease from Day 0 [1, 7]: 76.0% | Nodules (mean number) [1, 7]: 1.0 | Non-inflammatory lesions % Decrease from Day 0 [1, 7]: 18.5% | Non-inflammatory lesions (mean number) [1, 7]: 41.2 | Inflammatory lesions % Decrease from Day 0 [1, 8]: 15.5% | Inflammatory lesions (mean number) [1, 8]: 20.4 | Nodules % Decrease from Day 0 [1, 8]: 58.0% | Nodules (mean number) [1, 8]: 1.8 | Non-inflammatory lesions % Decrease from Day 0 [1, 8]: 30.1% | Non-inflammatory lesions (mean number) [1, 8]: 31.6 | clearance of azithromycin from the pilosebaceous apparatus ([2]; after attaining saturation or near saturation levels): more than 28 days | Skin Concentration (median) ([2]; 40 mg/day, Day 0): 0.00 ng/sample | Skin Concentration (median) ([2]; 40 mg/day, Day 21): 0.34 ng/sample | Skin Concentration (median) ([2]; 40 mg/day, Day 42): 0.59 ng/sample | Skin Concentration (median) ([2]; 40 mg/day, Day 70 (28 days after last dose)): 0.00 ng/sample | Skin Concentration (median) ([2]; 80 mg/day, Day 0): 0.00 ng/sample | Skin Concentration (median) ([2]; 80 mg/day, Day 21): 1.34 ng/sample | Skin Concentration (median) ([2]; 80 mg/day, Day 42): 1.68 ng/sample | Skin Concentration (median) ([2]; 80 mg/day, Day 70 (28 days after last dose)): 0.47 ng/sample | Skin Concentration (median) ([2]; 120 mg/day, Day 0): 0.00 ng/sample | Skin Concentration (median) ([2]; 120 mg/day, Day 21): 1.65 ng/sample | Skin Concentration (median) ([2]; 120 mg/day, Day 42): 1.99 ng/sample | Skin Concentration (median) ([2]; 120 mg/day, Day 70 (28 days after last dose)): 0.50 ng/sample | time to effective steady state level of azithromycin in skin ([2]; low doses, following commencement of therapy, no initial spike dose): ≤ 20 days | dosage at which the skin becomes saturated, theorized from the data ([2]; theorized from Table 3 data): about 95 mg/day
